Source: ChEMBL document CHEMBL4229333, “Effects of rigidity on the selectivity of protein kinase inhibitors” (Eur J Med Chem, 2018)

Experiments:
[1] = target: RAC-gamma serine/threonine-protein kinase (Homo sapiens) (UniProt Q9Y243); assay: Inhibition of AKT3 (unknown origin) at 1 uM by mobility shift microfluidics platform based assay relative to control
[2] = target: Serine/threonine-protein kinase BRSK1 (Homo sapiens) (UniProt Q8TDC3); assay: Inhibition of BRSK1 (unknown origin) at 1 uM by mobility shift microfluidics platform based assay relative to control
[3] = target: Calcium/calmodulin-dependent protein kinase type II subunit alpha (Homo sapiens) (UniProt Q9UQM7); assay: Inhibition of CAMK2A (unknown origin) at 1 uM by mobility shift microfluidics platform based assay relative to control
[4] = target: Cyclin-T1/Cyclin-dependent-like kinase 5 (Homo sapiens) (UniProt Q00535+O60563); assay: Inhibition of CDK5/cyclin T1 (unknown origin) at 1 uM by mobility shift microfluidics platform based assay relative to control; assay type: protein-complex assay
[5] = target: Casein kinase I isoform gamma-1 (Homo sapiens) (UniProt Q9HCP0); assay: Inhibition of CK1-gamma1 (unknown origin) at 1 uM by mobility shift microfluidics platform based assay relative to control
[6] = target: Dual specificity protein kinase CLK2 (Homo sapiens) (UniProt P49760); assay: Inhibition of CLK2 (unknown origin) at 1 uM by mobility shift microfluidics platform based assay relative to control
[7] = target: Serine/threonine-protein kinase DCLK2 (Homo sapiens) (UniProt Q8N568); assay: Inhibition of DCAMKL2 (unknown origin) at 1 uM by mobility shift microfluidics platform based assay relative to control
[8] = target: Receptor-type tyrosine-protein kinase FLT3 (Homo sapiens) (UniProt P36888); assay: Inhibition of FLT3 (unknown origin) at 1 uM by mobility shift microfluidics platform based assay relative to control
[9] = target: Vascular endothelial growth factor receptor 3 (Homo sapiens) (UniProt P35916); assay: Inhibition of FLT4 (unknown origin) at 1 uM by mobility shift microfluidics platform based assay relative to control
[10] = target: Glycogen synthase kinase-3 alpha (Homo sapiens) (UniProt P49840); assay: Inhibition of GSK-3-alpha (unknown origin) at 1 uM by mobility shift microfluidics platform based assay relative to control
[11] = target: Insulin receptor-related protein (Homo sapiens) (UniProt P14616); assay: Inhibition of IRR (unknown origin) at 1 uM by mobility shift microfluidics platform based assay relative to control
[12] = target: Tyrosine-protein kinase JAK2 (Homo sapiens) (UniProt O60674); assay: Inhibition of JAK2 (unknown origin) at 1 uM by mobility shift microfluidics platform based assay relative to control
[13] = target: Tyrosine-protein kinase Lyn (Homo sapiens) (UniProt P07948); assay: Inhibition of LYNB (unknown origin) at 1 uM by mobility shift microfluidics platform based assay relative to control
[14] = target: Serine/threonine-protein kinase MARK1 (Homo sapiens) (UniProt Q9P0L2); assay: Inhibition of MARK1 (unknown origin) at 1 uM by mobility shift microfluidics platform based assay relative to control
[15] = target: MAP/microtubule affinity-regulating kinase 4 (Homo sapiens) (UniProt Q96L34); assay: Inhibition of MARK4 (unknown origin) at 1 uM by mobility shift microfluidics platform based assay relative to control
[16] = target: Maternal embryonic leucine zipper kinase (Homo sapiens) (UniProt Q14680); assay: Inhibition of MELK (unknown origin) at 1 uM by mobility shift microfluidics platform based assay relative to control
[17] = target: Hepatocyte growth factor receptor (Homo sapiens) (UniProt P08581); assay: Inhibition of MET (unknown origin) at 1 uM by mobility shift microfluidics platform based assay relative to control
[18] = target: Serine/threonine-protein kinase 4 (Homo sapiens) (UniProt Q13043); assay: Inhibition of MST1 (unknown origin) at 1 uM by mobility shift microfluidics platform based assay relative to control
[19] = target: Protein NDRG1 (Homo sapiens) (UniProt Q92597); assay: Inhibition of NDRG1 (unknown origin) at 1 uM by mobility shift microfluidics platform based assay relative to control
[20] = target: Phosphatidylinositol 4,5-bisphosphate 3-kinase catalytic subunit alpha isoform (Homo sapiens) (UniProt P42336); assay: Inhibition of PI3K-alpha (unknown origin) at 1 uM by mobility shift microfluidics platform based assay relative to control
[21] = target: Serine/threonine-protein kinase pim-2 (Homo sapiens) (UniProt Q9P1W9); assay: Inhibition of PIM2 (unknown origin) at 1 uM by mobility shift microfluidics platform based assay relative to control
[22] = target: Protein kinase C beta type (Homo sapiens) (UniProt P05771); assay: Inhibition of PKC-beta1 (unknown origin) at 1 uM by mobility shift microfluidics platform based assay relative to control
[23] = target: Serine/threonine-protein kinase N2 (Homo sapiens) (UniProt Q16513); assay: Inhibition of PKN2 (unknown origin) at 1 uM by mobility shift microfluidics platform based assay relative to control
[24] = target: Serine/threonine-protein kinase PLK3 (Homo sapiens) (UniProt Q9H4B4); assay: Inhibition of PLK3 (unknown origin) at 1 uM by mobility shift microfluidics platform based assay relative to control
[25] = target: Receptor-interacting serine/threonine-protein kinase 2 (Homo sapiens) (UniProt O43353); assay: Inhibition of RIPK2 (unknown origin) at 1 uM by mobility shift microfluidics platform based assay relative to control
[26] = target: Macrophage-stimulating protein receptor (Homo sapiens) (UniProt Q04912); assay: Inhibition of RON (unknown origin) at 1 uM by mobility shift microfluidics platform based assay relative to control
[27] = target: Serine/threonine-protein kinase Sgk2 (Homo sapiens) (UniProt Q9HBY8); assay: Inhibition of SGK2 (unknown origin) at 1 uM by mobility shift microfluidics platform based assay relative to control
[28] = target: STE20-like serine/threonine-protein kinase (Homo sapiens) (UniProt Q9H2G2); assay: Inhibition of SLK (unknown origin) at 1 uM by mobility shift microfluidics platform based assay relative to control
[29] = target: TRAF2 and NCK-interacting protein kinase (Homo sapiens) (UniProt Q9UKE5); assay: Inhibition of TNIK (unknown origin) at 1 uM by mobility shift microfluidics platform based assay relative to control
[30] = target: Non-receptor tyrosine-protein kinase TNK1 (Homo sapiens) (UniProt Q13470); assay: Inhibition of TNK1 (unknown origin) at 1 uM by mobility shift microfluidics platform based assay relative to control
[31] = target: Testis-specific serine/threonine-protein kinase 1 (Homo sapiens) (UniProt Q9BXA7); assay: Inhibition of TSSK1 (unknown origin) at 1 uM by mobility shift microfluidics platform based assay relative to control
[32] = target: Testis-specific serine/threonine-protein kinase 2 (Homo sapiens) (UniProt Q96PF2); assay: Inhibition of TSSK2 (unknown origin) at 1 uM by mobility shift microfluidics platform based assay relative to control
[33] = target: Serine/threonine-protein kinase PLK4 (Homo sapiens) (UniProt O00444); assay: Inhibition of PLK4 (unknown origin) at 1 uM by mobility shift microfluidics platform based assay relative to control

Chain of Serine/threonine-protein kinase PLK3 (Homo sapiens) (Q9H4B4 whole entry, looked up): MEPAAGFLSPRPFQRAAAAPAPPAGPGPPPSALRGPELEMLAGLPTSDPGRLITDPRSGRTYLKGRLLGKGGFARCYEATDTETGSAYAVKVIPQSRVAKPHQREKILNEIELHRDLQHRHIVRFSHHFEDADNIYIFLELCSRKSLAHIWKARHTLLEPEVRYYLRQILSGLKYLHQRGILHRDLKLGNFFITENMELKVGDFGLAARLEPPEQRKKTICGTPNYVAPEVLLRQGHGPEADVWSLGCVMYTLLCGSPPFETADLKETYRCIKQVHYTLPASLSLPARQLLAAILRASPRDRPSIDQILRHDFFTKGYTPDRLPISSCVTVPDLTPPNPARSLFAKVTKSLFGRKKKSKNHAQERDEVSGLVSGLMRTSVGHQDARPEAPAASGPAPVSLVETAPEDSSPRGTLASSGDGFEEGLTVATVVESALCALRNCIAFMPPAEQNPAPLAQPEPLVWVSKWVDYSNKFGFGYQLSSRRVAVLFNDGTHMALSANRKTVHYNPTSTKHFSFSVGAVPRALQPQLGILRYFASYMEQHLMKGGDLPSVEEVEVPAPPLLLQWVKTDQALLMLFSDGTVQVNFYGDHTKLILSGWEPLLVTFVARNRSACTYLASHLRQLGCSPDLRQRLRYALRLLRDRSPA
Chain of Serine/threonine-protein kinase DCLK2 (Homo sapiens) (Q8N568 whole entry): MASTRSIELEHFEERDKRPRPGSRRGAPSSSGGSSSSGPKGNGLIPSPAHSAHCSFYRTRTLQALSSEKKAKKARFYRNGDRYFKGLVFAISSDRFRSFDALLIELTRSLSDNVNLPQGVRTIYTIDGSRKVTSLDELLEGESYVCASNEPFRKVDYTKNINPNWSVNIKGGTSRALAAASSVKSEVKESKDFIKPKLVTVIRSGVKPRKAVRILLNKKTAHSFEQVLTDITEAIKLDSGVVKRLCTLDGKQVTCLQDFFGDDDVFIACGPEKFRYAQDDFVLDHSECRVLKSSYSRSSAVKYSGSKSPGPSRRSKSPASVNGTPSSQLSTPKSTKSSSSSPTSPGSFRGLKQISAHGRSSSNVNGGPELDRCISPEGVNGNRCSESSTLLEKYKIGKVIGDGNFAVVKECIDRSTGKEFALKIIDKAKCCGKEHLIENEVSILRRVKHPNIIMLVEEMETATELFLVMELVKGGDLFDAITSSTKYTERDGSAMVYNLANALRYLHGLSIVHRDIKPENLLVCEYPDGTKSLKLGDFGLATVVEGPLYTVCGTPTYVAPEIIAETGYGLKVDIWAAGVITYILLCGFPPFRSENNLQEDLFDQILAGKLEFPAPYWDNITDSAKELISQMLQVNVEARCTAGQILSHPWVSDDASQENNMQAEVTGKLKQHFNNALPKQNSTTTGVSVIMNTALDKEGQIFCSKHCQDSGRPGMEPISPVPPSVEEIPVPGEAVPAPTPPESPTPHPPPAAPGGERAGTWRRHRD
Chain of Serine/threonine-protein kinase 4 (Homo sapiens) (Q13043 whole entry): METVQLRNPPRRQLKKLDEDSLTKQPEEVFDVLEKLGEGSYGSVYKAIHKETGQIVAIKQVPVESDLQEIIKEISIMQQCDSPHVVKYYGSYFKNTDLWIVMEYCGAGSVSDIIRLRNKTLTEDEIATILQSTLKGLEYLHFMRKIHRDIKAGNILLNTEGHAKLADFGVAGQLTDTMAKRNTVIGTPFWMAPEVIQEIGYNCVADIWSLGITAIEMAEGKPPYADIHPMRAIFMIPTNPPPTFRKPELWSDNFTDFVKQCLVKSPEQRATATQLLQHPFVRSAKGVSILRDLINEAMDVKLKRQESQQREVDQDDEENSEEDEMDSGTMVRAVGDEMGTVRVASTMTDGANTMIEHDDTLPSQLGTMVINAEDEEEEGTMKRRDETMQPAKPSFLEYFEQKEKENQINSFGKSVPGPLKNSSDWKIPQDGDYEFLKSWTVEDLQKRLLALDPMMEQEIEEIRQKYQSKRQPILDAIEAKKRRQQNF
Chain of Macrophage-stimulating protein receptor (Homo sapiens) (Q04912 25-304 limits assumed): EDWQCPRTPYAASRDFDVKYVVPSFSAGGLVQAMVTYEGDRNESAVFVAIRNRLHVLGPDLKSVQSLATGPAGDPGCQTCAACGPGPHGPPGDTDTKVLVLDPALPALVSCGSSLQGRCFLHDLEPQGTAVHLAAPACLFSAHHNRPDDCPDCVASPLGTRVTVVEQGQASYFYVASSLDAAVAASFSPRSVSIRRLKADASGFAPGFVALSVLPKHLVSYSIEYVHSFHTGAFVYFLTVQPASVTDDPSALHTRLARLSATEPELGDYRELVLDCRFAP
Chain of Macrophage-stimulating protein receptor (Homo sapiens) (Q04912 310-1400 limits assumed): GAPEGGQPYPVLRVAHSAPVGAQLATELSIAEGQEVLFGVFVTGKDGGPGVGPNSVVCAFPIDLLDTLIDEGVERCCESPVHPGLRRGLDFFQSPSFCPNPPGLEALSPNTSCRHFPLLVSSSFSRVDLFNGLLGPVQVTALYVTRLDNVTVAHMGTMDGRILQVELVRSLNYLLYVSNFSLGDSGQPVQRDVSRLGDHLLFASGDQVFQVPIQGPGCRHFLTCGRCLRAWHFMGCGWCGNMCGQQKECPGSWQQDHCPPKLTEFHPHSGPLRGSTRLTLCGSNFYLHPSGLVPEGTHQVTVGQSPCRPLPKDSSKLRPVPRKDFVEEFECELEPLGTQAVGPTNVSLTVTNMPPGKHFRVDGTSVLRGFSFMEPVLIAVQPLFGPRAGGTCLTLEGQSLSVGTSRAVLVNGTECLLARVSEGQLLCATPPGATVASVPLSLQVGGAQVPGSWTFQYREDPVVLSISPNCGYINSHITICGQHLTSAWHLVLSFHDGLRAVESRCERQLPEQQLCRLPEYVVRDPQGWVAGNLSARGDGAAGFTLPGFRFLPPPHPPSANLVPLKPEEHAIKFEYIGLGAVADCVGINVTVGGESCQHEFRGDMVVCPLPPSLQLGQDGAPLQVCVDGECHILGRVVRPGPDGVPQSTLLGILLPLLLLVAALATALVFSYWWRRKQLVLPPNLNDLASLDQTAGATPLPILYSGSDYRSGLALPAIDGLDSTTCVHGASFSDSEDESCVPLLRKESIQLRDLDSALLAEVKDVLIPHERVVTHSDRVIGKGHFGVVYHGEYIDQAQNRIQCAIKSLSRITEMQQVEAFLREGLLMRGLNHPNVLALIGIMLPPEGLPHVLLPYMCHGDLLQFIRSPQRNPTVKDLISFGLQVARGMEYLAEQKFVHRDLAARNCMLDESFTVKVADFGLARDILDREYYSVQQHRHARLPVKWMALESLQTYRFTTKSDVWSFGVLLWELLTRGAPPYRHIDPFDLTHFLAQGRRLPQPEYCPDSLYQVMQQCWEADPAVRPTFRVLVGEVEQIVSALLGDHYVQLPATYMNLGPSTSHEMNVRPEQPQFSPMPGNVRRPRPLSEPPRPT
Chain of Insulin receptor-related protein (Homo sapiens) (P14616 27-742 limits assumed): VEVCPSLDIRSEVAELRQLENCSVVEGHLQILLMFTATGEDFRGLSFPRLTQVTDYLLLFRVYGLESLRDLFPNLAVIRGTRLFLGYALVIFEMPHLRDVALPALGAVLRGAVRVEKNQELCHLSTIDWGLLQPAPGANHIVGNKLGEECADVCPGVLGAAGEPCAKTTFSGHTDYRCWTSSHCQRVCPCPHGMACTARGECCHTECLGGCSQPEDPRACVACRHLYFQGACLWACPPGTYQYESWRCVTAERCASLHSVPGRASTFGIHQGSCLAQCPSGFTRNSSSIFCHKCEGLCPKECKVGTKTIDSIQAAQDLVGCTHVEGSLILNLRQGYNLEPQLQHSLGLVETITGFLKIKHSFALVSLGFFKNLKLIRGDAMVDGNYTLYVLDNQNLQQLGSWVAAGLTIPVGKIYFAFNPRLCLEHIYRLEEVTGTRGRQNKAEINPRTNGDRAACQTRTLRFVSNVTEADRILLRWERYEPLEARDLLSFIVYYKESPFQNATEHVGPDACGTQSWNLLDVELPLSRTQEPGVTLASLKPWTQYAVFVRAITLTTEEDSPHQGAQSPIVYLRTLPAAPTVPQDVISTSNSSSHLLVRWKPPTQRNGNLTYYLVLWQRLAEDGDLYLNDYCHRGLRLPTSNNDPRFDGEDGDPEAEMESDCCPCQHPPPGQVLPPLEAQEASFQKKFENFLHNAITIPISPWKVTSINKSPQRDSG
Chain of Insulin receptor-related protein (Homo sapiens) (P14616 747-1297 limits assumed): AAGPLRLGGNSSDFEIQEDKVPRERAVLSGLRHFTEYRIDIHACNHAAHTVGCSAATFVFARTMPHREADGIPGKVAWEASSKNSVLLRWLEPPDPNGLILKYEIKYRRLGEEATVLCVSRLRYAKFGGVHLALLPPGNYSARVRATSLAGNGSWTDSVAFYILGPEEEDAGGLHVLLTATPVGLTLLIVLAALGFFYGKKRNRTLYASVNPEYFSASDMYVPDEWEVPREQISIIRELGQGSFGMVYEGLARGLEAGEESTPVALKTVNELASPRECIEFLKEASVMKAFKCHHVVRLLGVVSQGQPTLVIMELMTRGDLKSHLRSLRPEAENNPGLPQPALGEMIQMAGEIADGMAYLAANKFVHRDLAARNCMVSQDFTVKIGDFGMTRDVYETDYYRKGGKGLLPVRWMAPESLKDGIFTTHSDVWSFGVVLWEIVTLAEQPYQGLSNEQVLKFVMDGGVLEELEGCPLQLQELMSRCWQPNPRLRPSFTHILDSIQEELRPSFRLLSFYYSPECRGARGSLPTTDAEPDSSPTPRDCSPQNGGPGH
Chain of Glycogen synthase kinase-3 alpha (Homo sapiens) (P49840 2-483 limits assumed): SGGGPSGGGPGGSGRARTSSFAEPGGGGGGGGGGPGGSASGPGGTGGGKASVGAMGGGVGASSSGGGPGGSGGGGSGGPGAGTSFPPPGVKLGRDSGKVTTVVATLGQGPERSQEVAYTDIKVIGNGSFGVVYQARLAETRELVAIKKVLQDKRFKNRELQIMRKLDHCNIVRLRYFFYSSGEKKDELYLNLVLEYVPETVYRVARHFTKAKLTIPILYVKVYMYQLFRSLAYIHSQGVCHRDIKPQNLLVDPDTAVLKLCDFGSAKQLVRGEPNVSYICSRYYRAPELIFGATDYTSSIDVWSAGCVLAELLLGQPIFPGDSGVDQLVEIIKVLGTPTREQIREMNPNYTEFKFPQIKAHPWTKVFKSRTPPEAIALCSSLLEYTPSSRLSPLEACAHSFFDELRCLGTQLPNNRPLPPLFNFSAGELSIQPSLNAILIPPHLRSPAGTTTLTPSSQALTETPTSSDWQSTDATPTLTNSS

inhibition [1] | inhibition [2] | inhibition [3] | inhibition [4] | inhibition [5] | inhibition [6] | inhibition [7] | inhibition [8] | inhibition [9] | inhibition [10] | inhibition [11] | inhibition [12] | inhibition [13] | inhibition [14] | inhibition [15] | inhibition [16] | inhibition [17] | inhibition [18] | inhibition [19] | inhibition [20] | SMILES | also measured
3% | 0% | 6% | -2% | -5% | -1% | -1% | 7% | 97% | 6% | -3% | 3% | 94% | -2% | -1% | 2% | -1% | 4% | 6% | -8% | CC(C)n1nc(C#Cc2cccc3cc(-c4cccc(C(F)(F)F)c4)ncc23)c2c(N)ncnc21 | inhibition [21]: 0%; inhibition [22]: 2%; inhibition [23]: 8%; inhibition [24]: 0%; inhibition [25]: 82%; inhibition [26]: 1%; inhibition [27]: -2%; inhibition [28]: 18%; inhibition [29]: 4%; inhibition [30]: 19%; inhibition [31]: -1%; inhibition [32]: 1%; inhibition [33]: 5%
2% | -10% | 3% | 5% | 9% | 5% | 0% | 29% | 99% | 5% | 2% | 77% | 100% | 1% | -4% | -3% | 8% | 10% | -3% | 36% | CC(C)n1nc(C#Cc2cccc(NC(=O)c3cccc(C(F)(F)F)c3)c2)c2c(N)ncnc21 | inhibition [21]: -1%; inhibition [22]: -3%; inhibition [23]: 3%; inhibition [24]: 3%; inhibition [25]: 98%; inhibition [26]: 2%; inhibition [27]: 0%; inhibition [28]: 92%; inhibition [29]: 71%; inhibition [30]: 84%; inhibition [31]: 0%; inhibition [32]: -10%; inhibition [33]: 74%
